According to US9744204B1, “Multipath nutritional supplement for memory, cognition, and coordination” (priority 2015, dated 2017):

Tests used:
[1] = system: transgenic Drosophila melanogaster with an inducible tau; assay: Timed crawl test in transgenic flies with RU-486-inducible human tau; assay type: in vivo; details: RU-486-treated tau transgenic flies, crawl tests twice each week as flies aged (FIG. 1A, FIG. 2)
Experimental: FIGS. 1A and 1B show typical screens of transgenic Drosophila melanogaster with an inducible tau (FIG. 1A) or Abeta (FIG. 1B), which greatly reduces neural function with age. To assay for fly behavior changes as neural dysfunction progresses, timed crawl tests in which the time it takes individual flies to climb to the top of a test vial were performed twice each week as the flies aged. Select compositions were screened for use on the transgenic flies using the genetically targeted substances believed to act on longevity genes. Different dose concentrations were tested. Two hundred flies (1 fly of each sex in each of 100 vials) for each test condition were used. RU-486 was added to all fly samples except the untreated controls named Untreated (dashed blue line) and the A+P+T Control) about 4-5 days after flies were placed in vials. The first crawl tests were started about 9-10 days after insertion into vials and 5-6 days after RU addition (see FIGS. 1A and 1B). In Untreated Controls (dashed blue line), young flies typically crawl to the top of the vial quickly in 7-10 seconds, while older flies have progressively longer crawl times of up to 40 seconds or more with advancing age. The RU Controls (solid blue line) were treated with RU-486 without any helper substance and therefore have poor crawling tests and die early at 7 weeks (tau in FIG. 1A) or 5 weeks (Abeta in FIG. 1B). […]

rats = details: in rats; cited from earlier work
[2] = system: transgenic Drosophila melanogaster with an inducible Abeta; assay: Timed crawl test in transgenic flies with RU-486-inducible human Abeta; assay type: in vivo; details: RU-486-treated Abeta transgenic flies (FIG. 1B)
Experimental: To assay for fly behavior changes as neural dysfunction progresses, timed crawl tests in which the time it takes individual flies to climb to the top of a test vial were performed twice each week as the flies aged. Select compositions were screened for use on the transgenic flies using the genetically targeted substances believed to act on longevity genes. Different dose concentrations were tested. Two hundred flies (1 fly of each sex in each of 100 vials) for each test condition were used. RU-486 was added to all fly samples except the untreated controls named Untreated (dashed blue line) and the A+P+T Control) about 4-5 days after flies were placed in vials. The first crawl tests were started about 9-10 days after insertion into vials and 5-6 days after RU addition (see FIGS. 1A and 1B). […] The single substances and substance combinations are shown by the one letter codes: A=Astragalus, P=Pterocarpus, T=L-Theanine, G=Genistein, B=Berberine, L=Lithium, and S=Selenium.
To assay for fly neural functional decline with age as Abeta, tau, or the Park gene is induced, crawl times were used to test substances initially picked from the genomics work.

SMILES | crawl time / delay of neuronal dysfunction induced by human tau expression [1] | neuroprotection (rats) | crawl time / protection against dementia induced by human Abeta expression [2]
CC12CC3CC(C)(C1)CC(N)(C3)C2 [Mementin, reference compound] | works very well |  | 
CCNC(=O)CC[C@H](N)C(=O)O [L-Theanine, gamma-glutamylethylamide] |  | neuroprotective | 
[Se] [Selenium] | can protect against dementia |  | can protect against dementia
